In series [1] the target is T1, Recombinant HIV-1 protease (Human immunodeficiency virus type 1 group M subtype B, UniProt P04585).
T1 construct: Recombinant HIV-1 protease (>96% purity); purchased Bachem Bioscience, Inc. (King of Prussia, Pa.)
Briefly: HIV Protease Assay (Ki). The series is classed as biochemical. The conditions noted are these: Inhibition of HIV Protease Ki, pH 6.2, 37° C., 40 μM substrate III. The protocol: Recombinant HIV-1 protease (>96% purity) and HIV protease substrate III (the undecapeptide H-His-Lys-Ala-Arg-Val-Leu-Nph-Glu-Ala-Nle-Ser-NH2, 97% purity) were purchased from Bachem Bioscience, Inc. (King of Prussia, Pa.).
The methods employed follow the procedures of Tummino, et al., Archives of Biochemistry and Biophysics, 1995;316:523). […] (total volume, […]). […] The final inhibitor concentrations used were 0 (0.1, 0.2, in some experiments), 0.5, 1, 2, 5, 10, 20, 50, and 100 μM. The solution was mixed, incubated for 5 minutes and the reaction quenched by addition of trifluoracetic acid, 2% final. The (leu-p-nitro-phe) bond of the substrate is cleaved by the enzyme and substrate and products separated by reverse-phase HPLC (high pressure liquid chromatography). Absorbance was measured at 220 nm, peak areas determined, and percentage conversion to product used to calculate percentage control (=[% conversion (+inhibitor)/% conversion (−inhibitor)]×100).
Ki means inhibitory constant; it approximately the equilibrium binding constant for the binding of the inhibitor to the free enzyme.

The subject of series [2] is HIV infected lymphocyte derived CEM cells. Briefly: Cellular Infection Assay, XTT cytopathic procedure in CEM cells (antiviral efficacy). The conditions noted are these: Human immunodeficiency virus 1, CCRF-CEM, read-out: Antiviral Efficacy EC50, CEM cells, 50% protection against HIV cytopathic effects. The series is classed as cell-based. Here is the method:
Compounds were tested in lymphocyte derived CEM cells using the XTT cytopathic procedures and were performed at Southern Research Institute (Buckheit, et al., Antiviral Res., 1993;21:247; see also Weislow, et al., J. Nat. Cancer Inst., 1989;81:577). Compound concentrations were 0.32, 1, 3.2, 10, 32, and 100 μM. The EC50 represents the concentration of agent, which reduces HIV cytopathic effects 50% relative to untreated control. Cellular toxicity of the agents are estimated from the TC50 which represents the concentration of the agent which inhibits 50% of the viability of uninfected cells.
EC50 indicates the concentration of the drug which provide 50% protection against HIV.
On the technique in general: Formazan colour is commonly taken as a measure of viable cells.

Series [3] is described as follows: Cellular toxicity in uninfected CEM cells (XTT). The class given is cell-based. Conditions: human, uninfected CEM cells (lymphocyte derived), cytotoxicity in 50% of uninfected CEM cells; read-out: TC50 (the source's name). Here is the method: Compound concentrations were 0.32, 1, 3.2, 10, 32, and 100 μM.

Consider 40 molecules from US6512006B1, “HIV protease inhibitors” (Warner-Lambert Company, priority 1999, dated 2003).

Take `CCCN(C1=C(O)CC(CCc2ccc(O)cc2)(C(C)C)OC1=O)c1cccc(NS(=O)(=O)c2cccs2)c1` (centres unmarked): the melting point was in the range of 85 to 87 °C.
Consider `CCCN(C1=C(O)CC(CCc2ccc(O)cc2)(C2CCCC2)OC1=O)c1cccc(NS(=O)(=O)c2ccc(C(F)(F)F)cn2)c1` (centres unmarked), for which the melting point lay in the range of 104 to 106 °C.
On the same count and under the same terms, under `CCCCN(C1=C(O)CC(CCc2cccc(O)c2)(C2CCCC2)OC1=O)c1ccccc1` (centres unmarked) stands 64 to 66 °C.
The same measure, in the same setting: under `CCCN(C1=C(O)CC(CCc2ccc(N)cc2)(C(C)C)OC1=O)c1cccc(NS(=O)(=O)c2ccc(C(F)(F)F)cn2)c1` (centres unmarked) stands 170 to 172 °C; under `CC(C)C1(CCc2ccc(O)cc2)CC(O)=C(N(c2ccccc2)c2ccccc2)C(=O)O1` (centres unmarked), 83 to 85 °C; under `CCCN(C1=C(O)CC(CCc2ccc(O)cc2)(C(C)C)OC1=O)c1cccc(C(=O)OC)c1` (centres unmarked), 96 to 98 °C.
Same read-out and setting: under `CCCN(C1=C(O)CC(CCc2ccc(O)cc2)(C(C)C)OC1=O)c1cc(Cl)cc(Cl)c1` (centres unmarked) stands 86 to 88 °C.
For the molecule `CCCN(C1=C(O)CC(CCc2ccccc2)(C(C)C)OC1=O)c1ccccc1` (centres unmarked), the melting point lay within 160 to 162 °C.
Molecule `CCCN(C1=C(O)CC(CCc2ccsc2)(C(C)C)OC1=O)c1ccccc1` (centres unmarked) came in with a melting point of 53 to 55 °C.
On the same count and under the same terms, to `CCCN(C1=C(O)CC(CCc2ccc(O)cc2)(C2CCCC2)OC1=O)c1ccccc1` (centres unmarked) belongs 95 °C; to `CCN(C1=C(O)CC(CCc2ccc(O)cc2)(C(C)C)OC1=O)c1ccccc1` (centres unmarked), 63 to 65 °C.
On the same count and under the same terms, under `O=C1OC(CCc2cccc(O)c2)(C2CCCC2)CC(O)=C1N(c1ccccc1)c1ccccc1` (centres unmarked) stands 90 to 92 °C; under `CC(C)C1(CCc2ccc(O)cc2)CC(O)=C(N(c2ccccc2)C2CCCCC2)C(=O)O1` (centres unmarked), 104 to 106 °C.
Still for that read-out and setting: under `CC(C)C1(CCc2ccc(O)cc2)CC(O)=C(N(c2ccccc2)C2CCCC2)C(=O)O1` (centres unmarked) stands 83 to 85 °C; under `COc1ccc(N(C2=C(O)CC(CCc3ccc(O)cc3)(C(C)C)OC2=O)c2ccccc2)cc1` (centres unmarked), 95 to 96 °C.
Take `CCCN(C1=C(O)CC(C)(CCc2ccc(O)cc2)OC1=O)c1ccccc1` (centres unmarked): the melting point lay in the range of 179 to 181 °C.
Same read-out and setting: to `CC(C)C1(CCc2ccc(O)cc2)CC(O)=C(N(c2ccccc2)c2cccc(O)c2)C(=O)O1` (centres unmarked) belongs 95 to 97 °C; to `CCCCC1(CCc2ccc(O)cc2)CC(O)=C(N(CCC)c2ccccc2)C(=O)O1` (centres unmarked), 58 to 60 °C.
Still for that read-out and setting: to `CCCN(C1=C(O)CC(CCc2ccc(O)cc2)(C2CC2)OC1=O)c1ccccc1` (centres unmarked) belongs 74 to 75 °C; to `CC(C)N(C1=C(O)CC(CCc2ccc(O)cc2)(C(C)C)OC1=O)c1ccccc1` (centres unmarked), 75 to 77 °C.
Still for that read-out and setting: under `CC(C)C1(CCc2ccc(O)cc2)CC(O)=C(N(CCO)c2ccccc2)C(=O)O1` (centres unmarked) stands 85 to 86 °C.
`CCCN(C1=C(O)CC(CCc2ccc3c(c2)OCO3)(C(C)C)OC1=O)c1ccccc1` (centres unmarked) gave a melting point of 93 to 95 °C.
For `CC(C)CCN(C1=C(O)CC(CCc2ccc(O)cc2)(C(C)C)OC1=O)c1ccccc1` (centres unmarked), the melting point lay in the range of 70 to 72 °C.
Molecule `CC(C)C1(CCc2ccc(O)cc2)CC(O)=C(N(c2ccccc2)C2CC2)C(=O)O1` (centres unmarked) returned a melting point of 102 to 104 °C.
As to `CCCN(C1=C(O)CC(CCc2ccc(O)cc2)(C(C)C)OC1=O)c1cccc2c(O)cccc12` (centres unmarked), the melting point lay in the range of 93 to 96 °C.
Still for that read-out and setting: under `CCN(C1=C(O)CC(CCc2ccc(O)cc2)(C(C)C)OC1=O)c1ccc2ccccc2c1` (centres unmarked) stands 97 to 99 °C.
The molecule `CCN(C1=C(O)CC(CCc2ccc(O)cc2)(C(C)C)OC1=O)c1cccc2ccccc12` (centres unmarked) gave a melting point of 86 to 88 °C.
The same measure, in the same setting: to `CC(C)C1(CCc2ccc(O)cc2)CC(O)=C(N(Cc2ccccc2)c2ccccc2)C(=O)O1` (centres unmarked) belongs 75 to 77 °C; to `CCCCN(C1=C(O)CC(CCc2ccc(O)cc2)(C(C)C)OC1=O)c1ccccc1` (centres unmarked) [15], 69 to 71 °C; to `CCCN(C1=C(O)CC(CCc2ccc(O)cc2)(C(C)C)OC1=O)c1cccc(CO)c1` (centres unmarked) [19], 61 to 63 °C.
`CCCN(C1=C(O)CC(CCc2ccc(O)cc2)(C(C)C)OC1=O)c1cccc(CO)c1` (centres unmarked) [32] showed a melting point of 71 to 73 °C.
As for `CCCN(C1=C(O)CC(CCc2ccccc2)(C(C)C)OC1=O)c1cccc(NS(=O)(=O)c2ccc(C(F)(F)F)cn2)c1` (centres unmarked) [Example 1, 5-Trifluoromethyl-pyridine-2-sulfonic acid {3-[(4-hydroxy-6-isopropyl-2-oxo-6-phenethyl-5,6-dihydro-2H-pyran-3-yl)-propyl-amino]-phenyl}-amide], in series [1], the Ki is 0.029 nM. The EC50 in series [2] was 700 nM. In series [3], the CC50 amounted to 63000 nM.
The matching figures for `CCN(C1=C(O)CC(CCc2ccccc2)(C(C)C)OC1=O)c1cccc(NS(=O)(=O)c2ccc(C(F)(F)F)cn2)c1` (centres unmarked) [Example 3, 5-Trifluoromethyl-pyridine-2-sulfonic acid {3-[ethyl-(4-hydroxy-6-isopropyl-2-oxo-6-phenethyl-5,6-dihydro-2H-pyran-3-yl)-amino]-phenyl}-amide]: 0.96 nM, 1100 nM and 66000 nM.
The matching figures for `CCCN(C1=C(O)CC(CCc2ccc(O)cc2)(C(C)C)OC1=O)c1cccc(NS(=O)(=O)c2ccc(C(F)(F)F)cn2)c1` (centres unmarked) [Example 4, 5-Trifluoromethyl-pyridine-2-sulfonic acid [3-({4-hydroxy-6-[2-(4-hydroxy-phenyl)-ethyl]-6-isopropyl-2-oxo-5,6-dihydro-2H-pyran-3-yl}-propyl-amino)-phenyl]-amide]: 0.01 nM, 1100 nM and 84000 nM.
The matching figures for `CCCC1(CCc2ccc(O)cc2)CC(O)=C(N(CC)c2cccc(NS(=O)(=O)c3ccc(C(F)(F)F)cn3)c2)C(=O)O1` (centres unmarked) [Example 5, 5-Trifluoromethyl-pyridine-2-sulfonic acid [3-(ethyl-{4-hydroxy-6-[2-(4-hydroxy-phenyl)-ethyl]-2-oxo-6-propyl-5,6-dihydro-2H-pyran-3-yl}-amino)-phenyl]-amide]: 0.17 nM, 1300 nM and 113000 nM.
For the molecule `CCN(C1=C(O)CC(CCc2ccc(O)cc2)(C(C)C)OC1=O)c1cccc(NS(=O)(=O)c2ccc(C(F)(F)F)cn2)c1` (centres unmarked) [Example 6, 5-Trifluoromethyl-pyridine-2-sulfonic acid [3-(ethyl-{4-hydroxy-6-[2-(4-hydroxy-phenyl)-ethyl]-6-isopropyl-2-oxo-5,6-dihydro-2H-pyran-3-yl}-amino)-phenyl]-amide], the Ki in series [1] turned out to be 0.44 nM. Moreover, in series [2], the EC50 came out at 1300 nM. The CC50 in series [3] came out at 133000 nM.
Consider `CCCN(C1=C(O)CC(CCc2ccc(O)cc2)(C(C)C)OC1=O)c1ccccc1` (centres unmarked) [Example 7, 4-Hydroxy-6-[2-(4-hydroxy-phenyl)-ethyl]-6-isopropyl-3-(phenyl-propyl-amino)-5,6-dihydro-pyran-2-one], for which the melting point was 171 to 173 °C. For the same molecule, in series [1], the Ki was found to be 0.13 nM. The EC50 in series [2] is 1300 nM. The CC50 in series [3] was 200000 nM.
The matching figures for `CCCN(C1=C(O)CC(CCc2cccc(O)c2)(C2CCCC2)OC1=O)c1ccccc1` (centres unmarked) [Example 8, 6-Cyclopentyl-4-hydroxy-6-[2-(3-hydroxy-phenyl)-ethyl]-3-(phenyl-propyl-amino)-5,6-dihydro-pyran-2-one]: 74 to 76 °C, 0.35 nM, 1300 nM and 67000 nM.
The matching figures for `CCCN(C1=C(O)CC(CCc2ccccc2CO)(C(C)C)OC1=O)c1ccccc1` (centres unmarked) [Example 9, 4-Hydroxy-6-[2-(2-hydroxymethyl-phenyl)-ethyl]-6-isopropyl-3-(phenyl-propyl-amino)-5,6-dihydro-pyran-2-one]: 58 to 60 °C, 2 nM, 1400 nM and 101000 nM.
Consider `CCCCN(C1=C(O)CC(CCc2ccc(O)cc2)(C(C)C)OC1=O)c1ccccc1` (centres unmarked) [Example 13, 3-(Butyl-phenyl-amino)-4-hydroxy-6-[2-(4-hydroxy-phenyl)-ethyl]-6-isopropyl-5,6-dihydro-pyran-2-one], for which the melting point fell in the range of 196 to 198 °C. Besides, the Ki in series [1] came to 0.2 nM. Besides, in series [2], the EC50 was determined as 1500 nM. The CC50 in series [3] was determined as 156000 nM.

As a reminder, the melting point is the temperature, or range, at which the solid turns liquid. In general, Ki refers to a measure of affinity in units of concentration, obtained from inhibition or displacement. As a reminder, the EC50 is the midpoint of the concentration-response curve.
